Data from ChEMBL document CHEMBL4613208, “Isatin derivatives and their anti-bacterial activities” (Eur J Med Chem, 2019).
≈ marks a conversion by molar mass, not a printed value.

Key:
Pseudomonas aeruginosa [1] = assay: Antibacterial activity against Pseudomonas aeruginosa after 24 hrs by paper disc diffusion technique; format: functional
Escherichia coli [2] = assay: Antibacterial activity against Escherichia coli after 24 hrs by paper disc diffusion technique; format: functional
Klebsiella pneumoniae = assay: Antibacterial activity against Klebsiella pneumoniae after 24 hrs by paper disc diffusion technique; format: functional
Staphylococcus aureus [3] = assay: Antibacterial activity against Staphylococcus aureus after 24 hrs by paper disc diffusion technique; format: functional
Micrococcus luteus = assay: Antibacterial activity against Micrococcus luteus after 24 hrs by paper disc diffusion technique; format: functional
[4] = system: Staphylococcus epidermidis; assay: Antibacterial activity against Staphylococcus epidermidis after 24 hrs by paper disc diffusion technique; format: functional
Staphylococcus aureus [5] = assay: Antibacterial activity against Staphylococcus aureus by two-fold serial dilution technique; format: functional
Bacillus subtilis [6] = assay: Antibacterial activity against Bacillus subtilis by two-fold serial dilution technique; format: functional
Escherichia coli [7] = assay: Antibacterial activity against Escherichia coli by two-fold serial dilution technique; format: functional
Pseudomonas aeruginosa [8] = assay: Antibacterial activity against Pseudomonas aeruginosa by two-fold serial dilution technique; format: functional
Pseudomonas aeruginosa [9] = assay: Antibacterial activity against Pseudomonas aeruginosa; format: functional, organism-based
Staphylococcus aureus [10] = assay: Antibacterial activity against Staphylococcus aureus; format: functional, organism-based
Escherichia coli [11] = assay: Antibacterial activity against Escherichia coli; format: functional, organism-based
Bacillus subtilis [12] = assay: Antibacterial activity against Bacillus subtilis; format: functional
[13] = Pseudomonas aeruginosa, 24 h, read-out: MIC
[14] = Escherichia coli, 24 h, read-out: MIC
[15] = Klebsiella pneumoniae, 24 h, read-out: MIC
[16] = Staphylococcus aureus, 24 h, read-out: MIC
[17] = Micrococcus luteus, 24 h, read-out: MIC
[18] = Staphylococcus epidermidis, 24 h, read-out: MIC

SMILES | MIC (Pseudomonas aeruginosa [1]; [13]) | MIC (Escherichia coli [2]; [14]) | MIC (Klebsiella pneumoniae; [15]) | MIC (Staphylococcus aureus [3]; [16]) | MIC (Micrococcus luteus; [17]) | MIC [4, 18] | MIC (Staphylococcus aureus [5]) | MIC (Bacillus subtilis [6]) | MIC (Escherichia coli [7]) | MIC (Pseudomonas aeruginosa [8]) | further results
O=C(N/N=C1\C(=O)Nc2ccccc21)N/N=C1\C(=O)Nc2ccccc21 |  |  |  |  |  |  | 6.25 to 100 µg/mL (≈ 17.9 to 287 µM) | 6.25 to 100 µg/mL (≈ 17.9 to 287 µM) | 6.25 to 100 µg/mL (≈ 17.9 to 287 µM) | 6.25 to 100 µg/mL (≈ 17.9 to 287 µM) | 
O=C(N/N=C1\C(=O)Nc2ccc(Br)cc21)N/N=C1\C(=O)Nc2ccc(Br)cc21 |  |  |  |  |  |  | 6.25 to 100 µg/mL (≈ 12.3 to 198 µM) | 6.25 to 100 µg/mL (≈ 12.3 to 198 µM) | 6.25 to 100 µg/mL (≈ 12.3 to 198 µM) | 6.25 to 100 µg/mL (≈ 12.3 to 198 µM) | 
Cc1c(C)c2c(c(C)c1O)CCC(C)(C(=O)N/N=C1\C(=O)Nc3cc(Cl)ccc31)O2 (configuration not stated) |  |  |  |  |  |  |  |  |  |  | MIC (Pseudomonas aeruginosa [9]): 12.5 to 100 µg/mL (≈ 29.2 to 234 µM); MIC (Staphylococcus aureus [10]): 12.5 to 100 µg/mL (≈ 29.2 to 234 µM); MIC (Escherichia coli [11]): 12.5 to 100 µg/mL (≈ 29.2 to 234 µM)
Cc1ccc2c(c1)/C(=N/NC(=O)N/N=C1\C(=O)Nc3ccc(C)cc31)C(=O)N2 |  |  |  |  |  |  | 6.25 to 100 µg/mL (≈ 16.6 to 266 µM) | 6.25 to 100 µg/mL (≈ 16.6 to 266 µM) | 6.25 to 100 µg/mL (≈ 16.6 to 266 µM) | 6.25 to 100 µg/mL (≈ 16.6 to 266 µM) | 
O=C(N/N=C1\C(=O)Nc2ccc(C(=O)O)cc21)N/N=C1\C(=O)Nc2ccc(C(=O)O)cc21 |  |  |  |  |  |  | 6.25 to 100 µg/mL (≈ 14.3 to 229 µM) | 6.25 to 100 µg/mL (≈ 14.3 to 229 µM) | 6.25 to 100 µg/mL (≈ 14.3 to 229 µM) | 6.25 to 100 µg/mL (≈ 14.3 to 229 µM) | 
[N-]=[N+]=Nc1ccc(C2=NN(C(=O)CN3C(=O)C(=O)c4ccccc43)C(c3ccc(F)cc3)C2)cc1 (configuration not stated) |  |  |  |  |  |  |  |  |  |  | MIC (Bacillus subtilis [12]): 6.25 to 50 µg/mL (≈ 13.3 to 107 µM); MIC (Pseudomonas aeruginosa [9]): 6.25 to 50 µg/mL (≈ 13.3 to 107 µM); MIC (Staphylococcus aureus [10]): 6.25 to 50 µg/mL (≈ 13.3 to 107 µM); MIC (Escherichia coli [11]): 6.25 to 50 µg/mL (≈ 13.3 to 107 µM)
O=C(N/N=C1\C(=O)Nc2ccc(Cl)cc21)N/N=C1\C(=O)Nc2ccc(Cl)cc21 |  |  |  |  |  |  | 6.25 to 100 µg/mL (≈ 15 to 240 µM) | 6.25 to 100 µg/mL (≈ 15 to 240 µM) | 6.25 to 100 µg/mL (≈ 15 to 240 µM) | 6.25 to 100 µg/mL (≈ 15 to 240 µM) | 
CC1(C)S[C@@H]2[C@H](NC(=O)Cc3ccccc3)C(=O)N2[C@H]1C(=O)O [PENICILLIN G] |  |  |  |  |  |  |  |  |  |  | IC50 (Pseudomonas aeruginosa [9]): 631 µM; IC50 (Staphylococcus aureus [10]): 631 µM; IC50 (Escherichia coli [11]): 631 µM
O=C(N/N=C1\C(=O)N(Cc2ccccc2)c2ccc(Cl)cc21)N/N=C1\C(=O)N(Cc2ccccc2)c2ccc(Cl)cc21 |  |  |  |  |  |  | 6.25 to 100 µg/mL (≈ 10.5 to 167 µM) | 6.25 to 100 µg/mL (≈ 10.5 to 167 µM) | 6.25 to 100 µg/mL (≈ 10.5 to 167 µM) | 6.25 to 100 µg/mL (≈ 10.5 to 167 µM) | 

Now from value to molecule, other results behind:

MIC (Pseudomonas aeruginosa [1]; [13]) | MIC (Escherichia coli [2]; [14]) | MIC (Klebsiella pneumoniae; [15]) | MIC (Staphylococcus aureus [3]; [16]) | MIC (Micrococcus luteus; [17]) | MIC [4, 18] | MIC (Staphylococcus aureus [5]) | MIC (Bacillus subtilis [6]) | MIC (Escherichia coli [7]) | MIC (Pseudomonas aeruginosa [8]) | SMILES | further results
7.81 to 125 µg/mL (≈ 10.1 to 161 µM) | 7.81 to 125 µg/mL (≈ 10.1 to 161 µM) | 7.81 to 125 µg/mL (≈ 10.1 to 161 µM) | 7.81 to 125 µg/mL (≈ 10.1 to 161 µM) | 7.81 to 125 µg/mL (≈ 10.1 to 161 µM) | 7.81 to 125 µg/mL (≈ 10.1 to 161 µM) |  |  |  |  | COc1cc(/C=N/c2ccc(/N=C3/C(=O)N(CN4CCN(c5cc6c(cc5F)c(=O)c(C(=O)O)cn6C5CC5)CC4)c4ccc(F)cc43)cc2)cc(OC)c1OC | 
7.81 to 125 µg/mL (≈ 10.7 to 171 µM) | 7.81 to 125 µg/mL (≈ 10.7 to 171 µM) | 7.81 to 125 µg/mL (≈ 10.7 to 171 µM) | 7.81 to 125 µg/mL (≈ 10.7 to 171 µM) | 7.81 to 125 µg/mL (≈ 10.7 to 171 µM) | 7.81 to 125 µg/mL (≈ 10.7 to 171 µM) |  |  |  |  | COc1cc(/C=N/c2ccc(/N=C3/C(=O)N(CN4CCN(c5cc6c(cc5F)c(=O)c(C(=O)O)cn6C5CC5)CC4)c4ccc(F)cc43)cc2)ccc1O | 
7.81 to 125 µg/mL (≈ 11.1 to 178 µM) | 7.81 to 125 µg/mL (≈ 11.1 to 178 µM) | 7.81 to 125 µg/mL (≈ 11.1 to 178 µM) | 7.81 to 125 µg/mL (≈ 11.1 to 178 µM) | 7.81 to 125 µg/mL (≈ 11.1 to 178 µM) | 7.81 to 125 µg/mL (≈ 11.1 to 178 µM) |  |  |  |  | O=C(O)c1cn(C2CC2)c2cc(N3CCN(CN4C(=O)/C(=N/c5ccc(/N=C/c6ccc(O)cc6)cc5)c5cc(F)ccc54)CC3)c(F)cc2c1=O | MIC (Pseudomonas aeruginosa [1]): 7.81 to 15.62 µg/mL; MIC (Escherichia coli [2]): 7.81 to 15.62 µg/mL; MIC (Klebsiella pneumoniae): 7.81 to 15.62 µg/mL; MIC (Staphylococcus aureus [3]): 7.81 to 15.62 µg/mL; MIC (Micrococcus luteus): 7.81 to 15.62 µg/mL; MIC [4]: 7.81 to 15.62 µg/mL
7.81 to 125 µg/mL (≈ 11.4 to 182 µM) | 7.81 to 125 µg/mL (≈ 11.4 to 182 µM) | 7.81 to 125 µg/mL (≈ 11.4 to 182 µM) | 7.81 to 125 µg/mL (≈ 11.4 to 182 µM) | 7.81 to 125 µg/mL (≈ 11.4 to 182 µM) | 7.81 to 125 µg/mL (≈ 11.4 to 182 µM) |  |  |  |  | O=C(O)c1cn(C2CC2)c2cc(N3CCN(CN4C(=O)/C(=N/c5ccc(/N=C/c6ccccc6)cc5)c5cc(F)ccc54)CC3)c(F)cc2c1=O | 
7.81 to 125 µg/mL (≈ 10.8 to 173 µM) | 7.81 to 125 µg/mL (≈ 10.8 to 173 µM) | 7.81 to 125 µg/mL (≈ 10.8 to 173 µM) | 7.81 to 125 µg/mL (≈ 10.8 to 173 µM) | 7.81 to 125 µg/mL (≈ 10.8 to 173 µM) | 7.81 to 125 µg/mL (≈ 10.8 to 173 µM) |  |  |  |  | O=C(O)c1cn(C2CC2)c2cc(N3CCN(CN4C(=O)/C(=N/c5ccc(/N=C/c6ccc(Cl)cc6)cc5)c5cc(F)ccc54)CC3)c(F)cc2c1=O | 
7.81 to 125 µg/mL (≈ 10.9 to 174 µM) | 7.81 to 125 µg/mL (≈ 10.9 to 174 µM) | 7.81 to 125 µg/mL (≈ 10.9 to 174 µM) | 7.81 to 125 µg/mL (≈ 10.9 to 174 µM) | 7.81 to 125 µg/mL (≈ 10.9 to 174 µM) | 7.81 to 125 µg/mL (≈ 10.9 to 174 µM) |  |  |  |  | COc1ccc(/C=N/c2ccc(/N=C3/C(=O)N(CN4CCN(c5cc6c(cc5F)c(=O)c(C(=O)O)cn6C5CC5)CC4)c4ccc(F)cc43)cc2)cc1 | 
7.81 to 125 µg/mL (≈ 10.7 to 171 µM) | 7.81 to 125 µg/mL (≈ 10.7 to 171 µM) | 7.81 to 125 µg/mL (≈ 10.7 to 171 µM) | 7.81 to 125 µg/mL (≈ 10.7 to 171 µM) | 7.81 to 125 µg/mL (≈ 10.7 to 171 µM) | 7.81 to 125 µg/mL (≈ 10.7 to 171 µM) |  |  |  |  | O=C(O)c1cn(C2CC2)c2cc(N3CCN(CN4C(=O)/C(=N/c5ccc(/N=C/c6ccc([N+](=O)[O-])cc6)cc5)c5cc(F)ccc54)CC3)c(F)cc2c1=O | 
